Experimental data published in patent US20250382301A1 (Arizona Board of Regents on Behalf of the University of …, priority 2022, published 2025).
pEC50: −log10 of the molar value.

system: WNT signaling (TopGFP reporter in Human Colonic Epithelial Cells (HCEC)); assay: WNT Reporter Assay (TopGFP reporter); type: cell-based; details: Homo sapiens, stimulated with 10 μM CHIR99021, 24 hours, TopGFP/mCherry
Protocol: WNT Reporter Assay: Human Colonic Epithelial Cells (HCEC) were cultured using 1×DMEM supplemented with 1% penicillin/streptomycin, 1% Glutamax, and 10% fetal bovine serum in 5% CO2 at 37° C. These cells were previously engineered to express the TopGFP reporter (Addgene #24304) using second generation lentiviral techniques. For the Wnt reporter assay, cells were seeded at 2000 cells per well in a 384-well black screenstar imaging microplates (Greiner #781866) and allowed to adhere overnight. The following day cells were stimulated to induce the Wnt pathway using 10 μM CHIR99021 (Selleck #S1263). […] Cells were incubated for 24 hours before fixing for 30 minutes with 4% paraformaldehyde/sucrose solution. Cells were permeabilized with 0.1% triton-x in PBS for 10 minutes and stained for DAPI for 30 minutes. Plates were imaged on a Nikon Ti2 Eclipse fluorescent microscope for DAPI, GFP, and mCherry. Using Nikon Elements software for analysis, nuclei were segmented based on DAPI and mean object intensity per cell for both TopGFP and the internal control (mCherry) was measured. To calculate the amount of Wnt activity, we took the mean intensity of TopGFP and divided it by the mean intensity of mCherry per cell to normalize individual cells. Curves and EC50s were plotted and calculated using Graphpad Prism software.

Compound	pEC50
Nc1cc(-c2ccc3ncnc(N4CCN(c5ccccc5F)CC4)c3c2)ccn1 [Compound 15, 4-(4-(4-(2-fluorophenyl)piperazin-1-yl)quinazolin-6-yl)pyridin-2-amine]	6.00 to 7.00
Nc1cc(-c2ccc3ncnc(N4[C@@H]5CC[C@H]4CN(c4ccccn4)C5)c3c2)ccn1 [Compound 54, 4-(4-((1R,5S)-3-(pyridin-2-yl)-3,8-diazabicyclo[3.2.1]octan-8-yl)quinazolin-6-yl)pyridin-2-amine]	6.00 to 7.00
Nc1cc(-c2ccc3ncnc(N4CCN(c5ccccc5F)C(=O)C4)c3n2)ccn1 [Compound 67, 4-(6-(2-aminopyridin-4-yl)pyrido[3,2-d]pyrimidin-4-yl)-1-(2-fluorophenyl)piperazin-2-one]	> 7.00
Nc1cc(-c2ccc3ncnc(N4CCN(c5ccccn5)CC4)c3n2)ccn1 [Compound 5, 4-(4-(4-(pyridin-2-yl)piperazin-1-yl)pyrido[3,2-d]pyrimidin-6-yl)pyridin-2-amine]	> 7.00
Nc1cc(-c2ccc3nccc(N4CCN(c5ccccc5)CC4)c3n2)ccn1 [Compound 53, 4-(8-(4-phenylpiperazin-1-yl)-1,5-naphthyridin-2-yl)pyridin-2-amine]	> 7.00
Nc1cc(-c2ccc3ncnc(N4C[C@H]5C[C@@H]4CN5c4ccccn4)c3c2)ccn1 [Compound 55, 4-(4-((1R,4R)-5-(pyridin-2-yl)-2,5-diazabicyclo[2.2.1]heptan-2-yl)quinazolin-6-yl)pyridin-2-amine]	< 6.00
Nc1cc(-c2ccc3ncnc(N4CCN(c5nccs5)CC4)c3c2)ccn1 [Compound 50, 4-(4-(4-(thiazol-2-yl)piperazin-1-yl)quinazolin-6-yl)pyridin-2-amine]	> 7.00
Nc1cc(-c2ccc3ncnc(N4CCN(c5ccc(C(F)(F)F)cn5)CC4)c3n2)ccn1 [Compound 16, 4-(4-(4-(5-(trifluoromethyl)pyridin-2-yl)piperazin-1-yl)pyrido[3,2-d]pyrimidin-6-yl)pyridin-2-amine]	> 7.00
Nc1cc(-c2ccc3ncnc(N4CCN(c5ncccn5)CC4)c3c2)ccn1 [Compound 10, 4-(4-(4-(pyrimidin-2-yl)piperazin-1-yl)quinazolin-6-yl)pyridin-2-amine]	6.00 to 7.00
Fc1cccnc1N1CCN(c2ncnc3ccc(-c4c[nH]c5ncccc45)cc23)CC1 [Compound 57, 4-(4-(3-fluoropyridin-2-yl)piperazin-1-yl)-6-(1H-pyrrolo[2,3-b]pyridin-3-yl)quinazoline]	> 7.00
Nc1cc(-c2ccc3ncnc(N4CCC(n5ccccc5=O)CC4)c3c2)ccn1 [Compound 62, 1-(1-(6-(2-aminopyridin-4-yl)quinazolin-4-yl)piperidin-4-yl)pyridin-2(1H)-one]	6.00 to 7.00
COc1cc2c(cc1OC)CN(c1ncnc3ccc(-c4cnn(C)c4)cc13)CC2 [Compound 47, 4-(6,7-dimethoxy-3,4-dihydroisoquinolin-2(1H)-yl)-6-(1-methyl-1H-pyrazol-4-yl)quinazoline]	< 6.00
Nc1cc(-c2ccc3ncnc(N4CCCN(Cc5ccc(F)cc5)CC4)c3c2)ccn1 [Compound 41, 4-(4-(4-(4-fluorobenzyl)-1,4-diazepan-1-yl)quinazolin-6-yl)pyridin-2-amine]	6.00 to 7.00
Nc1cc(-c2ccc3ncnc(N4CCN(c5ccc(F)cc5F)CC4)c3c2)ccn1 [Compound 39, 4-(4-(4-(2,4-difluorophenyl)piperazin-1-yl)quinazolin-6-yl)pyridin-2-amine]	6.00 to 7.00
Nc1cc(-c2ccc3nccc(N4CCN(c5ccccc5F)CC4)c3n2)ccn1 [Compound 52, 4-(8-(4-(2-fluorophenyl)piperazin-1-yl)-1,5-naphthyridin-2-yl)pyridin-2-amine]	> 7.00
Nc1cc(-c2ccc3ncnc(N4CCC(c5ccccc5F)CC4)c3c2)ccn1 [Compound 48, 4-(4-(4-(2-fluorophenyl)piperidin-1-yl)quinazolin-6-yl)pyridin-2-amine]	6.00 to 7.00
FC(F)c1cc(-c2ccc3ncnc(N4CCN(c5ccccn5)CC4)c3c2)ccn1 [Compound 8, 6-(2-(difluoromethyl)pyridin-4-yl)-4-(4-(pyridin-2-yl)piperazin-1-yl)quinazoline]	6.00 to 7.00
Fc1ccccc1N1CCN(c2ncnc3ccc(-c4cnoc4)nc23)CC1 [Compound 40, 4-(4-(4-(2-fluorophenyl)piperazin-1-yl)pyrido[3,2-d]pyrimidin-6-yl)isoxazole]	6.00 to 7.00
Nc1cc(-c2ccc3ncnc(N4CCN(C5COC5)CC4)c3c2)ccn1 [Compound 11, 4-(4-(4-(oxetan-3-yl)piperazin-1-yl)quinazolin-6-yl)pyridin-2-amine]	< 6.00
Nc1cc(-c2ccc3ncnc(N4CCN(c5ccc(F)cc5)CC4)c3c2)ccn1 [Compound 31, 4-(4-(4-(4-fluorophenyl)piperazin-1-yl)quinazolin-6-yl)pyridin-2-amine]	6.00 to 7.00

same assay, conditions: stimulated with 10 μM CHIR99021, 24 hours, TopGFP/mCherry

Compound	pEC50
6-(1H-pyrazol-3-yl)-4-(4-(pyridin-2-yl)piperazin-1-yl)pyrido[3,2-d]pyrimidine [Compound 18]	> 7.00
6-(1-methyl-1H-pyrazol-3-yl)-4-(4-(5-(trifluoromethyl)pyridin-2-yl)piperazin-1-yl)pyrido[3,2-d]pyrimidine [Compound 21]	< 6.00
